Reference: patent US20160206674A1, “FRUIT EXTRACTS AND EXTRACT FORMULATIONS OF CANARIUM ODONTOPHYLLUM AS ACTIVES AND RELATED INVENTION EMBODIMENTS” (BIOTROPICS MALAYSIA BHD, priority 2013, published 2016)

How the values were obtained:
[1] = molecular target: T1, human recombinant PDE2A1 (Homo sapiens, UniProt O00408); assay: AlphaScreen cGMP PDE assay, PDE2; type: biochemical; details: n = 3
T1 construct: FLAG (N); purchased BPS Bioscience 0021
Procedure: (§1) Phosphodiesterase inhibitory activity of the test items prepared according to the procedure in example 2 and outlined in table 2 were measured using the AlphaScreen® assay technology. Materials and methods were according to technical instructions given by Perkin Elmer (www.perkinelmer.com; “Application note “AlphaScreen cGMP Phosphodiesterase Assay Using AlphaScreen cGMP Supplement with Anti-cGMP Antibody”; Authors: Martin Boissonneault, Christian Fafard, Joe Trometer, Chantal Illy, Stéphane Parent, and Roger Bossé; PerkinElmer Life and Analytical Sciences, 710 Bridgeport Avenue, Shelton, Conn. 06484 USA).
(§2) The AlphaScreen cGMP PDE assay used PerkinElmer's AlphaScreen cGMP supplement with antibody (cat. no. 6760308M or 6760308R) which consists of a biotinylated cGMP derivative and an anti-cGMP antibody. The assay also requires the AlphaScreen Protein A detection kit (PerkinElmer cat. no. 6760617), composed of Protein A acceptor beads and Streptavidin donor beads. The human recombinant PDE5A (N-terminal GST, cat no 60050) and PDE2A1 (N-terminal FLAG tag, cat no 0021) were purchased from BPS Bioscience, San Diego, United States. […]
(§3) 1—Add 5 μL of inhibitor* * Please note that for compound screening purposes, adding […] of test compounds to 4.5 μL of cGMP substrate solution prepared in the PDE reaction Buffer is recommended. […] 2—Add 5 μL of PDE (5U per well) 3—Incubate 120 minutes at 23° C. for enzymatic cleavage of unlabeled cGMP 4—Add 5 μL of the AlphaScreen cGMP Supplement (1 nM final) 5—Add 10 μL Detection mix (anti-cGMP antibody/Streptavidin-Donor beads (20 μg/mL final)/Protein A-Acceptor beads (20 μg/mL final)) 6—Incubate the plate for 1 hour at room temperature in the dark and detect the AlphaScreen signal using the microplate analyzer PHERAstar reader.

[2] = molecular target: T2, human recombinant PDE5A (Homo sapiens, UniProt O76074); assay: AlphaScreen cGMP PDE assay, PDE5; type: biochemical; details: n = 3
T2 construct: GST (N); purchased BPS Bioscience 60050
Procedure: as §1, §2, §3

T1 sequence (O00408 1-920 isoform O00408-2): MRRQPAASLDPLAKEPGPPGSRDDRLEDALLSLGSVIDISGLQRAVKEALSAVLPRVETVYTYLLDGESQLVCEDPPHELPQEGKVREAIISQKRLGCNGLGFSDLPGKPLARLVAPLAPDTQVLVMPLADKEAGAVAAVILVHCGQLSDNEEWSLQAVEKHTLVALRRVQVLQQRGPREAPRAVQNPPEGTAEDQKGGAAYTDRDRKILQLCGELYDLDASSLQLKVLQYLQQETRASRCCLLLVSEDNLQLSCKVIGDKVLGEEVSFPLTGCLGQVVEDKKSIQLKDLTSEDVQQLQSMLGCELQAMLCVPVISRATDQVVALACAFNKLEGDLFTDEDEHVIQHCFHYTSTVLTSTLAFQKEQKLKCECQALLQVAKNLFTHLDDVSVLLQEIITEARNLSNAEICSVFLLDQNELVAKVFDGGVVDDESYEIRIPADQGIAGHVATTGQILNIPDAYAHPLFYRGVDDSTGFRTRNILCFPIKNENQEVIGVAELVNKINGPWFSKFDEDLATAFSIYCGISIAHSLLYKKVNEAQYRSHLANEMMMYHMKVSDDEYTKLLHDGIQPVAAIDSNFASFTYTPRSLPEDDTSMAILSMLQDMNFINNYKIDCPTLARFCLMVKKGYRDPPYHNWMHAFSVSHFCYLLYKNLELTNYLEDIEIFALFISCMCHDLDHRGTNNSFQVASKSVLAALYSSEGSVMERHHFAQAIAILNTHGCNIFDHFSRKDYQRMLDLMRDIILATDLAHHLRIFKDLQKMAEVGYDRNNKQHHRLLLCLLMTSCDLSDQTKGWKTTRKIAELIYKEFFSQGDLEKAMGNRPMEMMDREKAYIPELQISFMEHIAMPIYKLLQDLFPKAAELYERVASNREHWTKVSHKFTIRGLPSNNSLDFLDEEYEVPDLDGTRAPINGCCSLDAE

SMILES | % inhibition of PDE-2 ([1]; Reference at 10 μM) | % inhibition of PDE-2 ([1]; reference at 1 μM) | % inhibition of PDE-2 ([1]; reference at 5 μM) | inhibition at 1 µM ([2]; reference at 1 μM) | inhibition at 5 µM ([2]; reference at 5 μM) | inhibition at 19 µM ([2]; reference at 19 μM)
CCCCCCC(C(C)O)n1cnc2c(N)ncnc21.Cl (stereo not drawn) [EHNA] | 98% | 33% | 73% |  |  | 
CCCOc1ccccc1-c1nc2nn[nH]c2c(=O)[nH]1 [Zaprinast] |  |  |  | 57% | 81% | 88%
